According to the NIST ThermoML archive (doi:10.1016/j.jct.2008.12.011):

What was measured:
[1] = cn = amount concentration of the nth substance listed, in mol/dm3; conditions: 101.3 kPa, Liquid, Vibrating tube method
[2] = mn = molality of the nth substance listed, in mol/kg; conditions: 101 kPa, Liquid, Vibrating tube method

CC(=O)[O-].[K+] [potassium ethanoate] + O
mass density [kg/m3], [1]
Conditions | c1 = 1 | c1 = 1.5 | c1 = 2 | c1 = 2.5 | c1 = 3 | c1 = 3.5 | c1 = 4
298.15 K | – | 1066.61 | – | 1108.88 | 1127.48 | 1148.72 | –
303.15 K | 1041.9 | 1064.76 | 1086.01 | 1106.89 | 1125.37 | 1146.49 | 1168.58
308.15 K | 1039.27 | 1062.94 | 1083.09 | 1103.93 | 1122.15 | 1143.14 | 1165.13
313.15 K | 1035.88 | 1059.39 | 1079.44 | 1100.19 | 1118.3 | 1139.19 | 1160.96
318.15 K | 1033.57 | 1057.02 | 1077.01 | 1097.66 | 1115.71 | 1136.58 | 1158.26
323.15 K | 1030.82 | 1054.37 | 1074.47 | 1095.05 | 1113.05 | 1133.87 | 1155.47

[Cl-].[Na+] [sodium chloride] + O
mass density [kg/m3], [1]
Conditions | c1 = 1 | c1 = 1.5 | c1 = 2 | c1 = 2.5 | c1 = 3 | c1 = 3.5 | c1 = 4
298.15 K | – | 1053.3 | – | 1088.97 | 1110.22 | 1124.82 | –
303.15 K | 1035.38 | 1055.01 | 1073.49 | 1086.83 | 1107.87 | 1122.4 | 1146.3
308.15 K | – | 1053.06 | 1070.4 | 1083.71 | 1104.62 | 1118.95 | 1142.7
313.15 K | 1029.13 | 1050.21 | 1066.6 | 1079.83 | 1100.67 | 1114.84 | 1138.45
318.15 K | 1026.75 | 1046.65 | 1064.11 | 1077.28 | 1098.06 | 1112.16 | 1135.7
323.15 K | 1023.15 | 1044.21 | 1061.5 | 1074.62 | 1095.35 | 1109.38 | 1132.89

[Cl-].[K+] [potassium chloride] + O
mass density [kg/m3], [1]
Conditions | c1 = 1 | c1 = 1.5 | c1 = 2 | c1 = 2.5 | c1 = 3 | c1 = 3.5 | c1 = 4
298.15 K | – | 1059.97 | – | 1104.2 | 1124.93 | 1145.56 | –
303.15 K | 1041.13 | 1058.12 | 1080.38 | 1102.19 | 1122.78 | 1143.35 | 1166.67
308.15 K | 1038.43 | 1055.31 | 1077.43 | 1099.06 | 1119.56 | 1140.06 | 1163.34
313.15 K | 1035.01 | 1051.75 | 1073.77 | 1095.37 | 1115.79 | 1136.18 | 1159.35
318.15 K | 1032.69 | 1049.38 | 1071.35 | 1092.9 | 1113.28 | 1133.63 | 1156.76
323.15 K | 1030.24 | 1047.03 | 1068.81 | 1090.34 | 1110.71 | 1131.02 | 1154.1

O=S(=O)(O)CC(O)CNC(CO)(CO)CO (configuration not stated) + O
mass density [kg/m3], [2]
Conditions | 298.15 K | 303.15 K | 310.15 K | 318.15 K | 323.15 K | 328.15 K
m1 = 0.0629 | 1003.59 | 1002.16 | 999.78 | 996.62 | 994.41 | 992.05
m1 = 0.123 | 1009.62 | 1008.14 | 1005.72 | 1002.52 | 1000.3 | 997.92
m1 = 0.1921 | 1016.37 | 1014.86 | 1012.39 | 1009.15 | 1006.89 | 1004.5
m1 = 0.4659 | 1041.93 | 1040.26 | 1037.6 | 1034.18 | 1031.71 | 1028.8
m1 = 0.7644 | 1069.04 | 1066.83 | 1063.04 | 1059.95 | 1056.86 | 1054.93

[Br-].[K+] [potassium bromide] + O
mass density [kg/m3], [1]
Conditions | c1 = 1 | c1 = 1.5 | c1 = 2 | c1 = 2.5 | c1 = 3 | c1 = 3.5 | c1 = 4
298.15 K | – | 1119.52 | – | 1199.54 | 1239.34 | 1279.04 | –
303.15 K | 1078.68 | 1117.57 | 1160.04 | 1197.23 | 1236.89 | 1276.29 | 1320.56
308.15 K | 1075.81 | 1114.62 | 1156.73 | 1193.88 | 1233.52 | 1272.28 | 1316.47
313.15 K | 1072.09 | 1110.71 | 1152.65 | 1189.67 | 1229.2 | 1267.53 | 1311.63
318.15 K | 1066.6 | 1106.96 | 1149.76 | 1186.74 | 1226.19 | 1264.46 | 1308.52
323.15 K | 1063.02 | 1102.44 | 1144.45 | 1182.53 | 1222.18 | 1260.51 | 1305.31

O=S(=O)(O)CCCNC(CO)(CO)CO [3-[tris(hydroxymethyl)methylamino]-1-propanesulfonic acid] + O
mass density [kg/m3], [2]
Conditions | m1 = 0.5011 | m1 = 0.8957 | m1 = 1.224 | m1 = 1.793 | m1 = 2.213 | m1 = 2.423 | m1 = 2.803
298.15 K | 1046.07 | 1064.95 | 1084.21 | 1117.87 | 1140.59 | 1152.07 | 1170.75
303.15 K | 1044.13 | 1062.96 | 1082.18 | 1115.68 | 1138.38 | 1149.81 | 1168.43
310.15 K | 1041.22 | 1059.95 | 1079.15 | 1112.62 | 1135.28 | 1146.62 | 1165.22
318.15 K | 1037.23 | 1055.92 | 1075.09 | 1108.55 | 1131.19 | 1142.49 | 1161.04
323.15 K | 1034.92 | 1053.59 | 1072.68 | 1106.08 | 1128.7 | 1139.98 | 1158.52
328.15 K | 1032.67 | 1051.25 | 1070.31 | 1103.67 | 1126.12 | 1137.32 | 1155.87
